The subject of one data set is Alternaria solani. As to the kind of experiment: Example A1: Alternaria solani / tomato / leaf disc (early blight). The class given is in vivo. The settings on record: foliar, tomato leaf disks inoculated 2 days after application, compared to untreated control.
For data set [1], the system named is Botryotinia fuckeliana (Botrytis cinerea). The experiment in a line: Example A2: Botryotinia fuckeliana (Botrytis cinerea) / liquid culture (gray mould). Particulars: read-out: control of Botryotinia fuckeliana. It is filed as cell-based. The text has this: Example A2: Botryotinia Fuckeliana (Botrytis Cinerea) / Liquid Culture (Gray Mould) Conidia of the fungus from cryogenic storage are directly mixed into nutrient broth (Vogels broth). […] […].38.

Data set [2] deals with Glomerella lagenarium (Colletotrichum lagenarium). The experiment in a line: Example A3: Glomerella lagenarium (Colletotrichum lagenarium) / liquid culture (anthracnose). The class given is cell-based. The settings on record: Colletotrichum orbiculare; read-out: control of Glomerella lagenarium.
In data set [3] the test system is Monographella nivalis (Microdochium nivale). The experiment in a line: Example A6: Monographella nivalis (Microdochium nivale) / liquid culture (foot rot cereals). It is filed as cell-based. The settings on record: read-out: control of Monographella nivalis.
Data set [4] concerns Mycosphaerella arachidis (Cercospora arachidicola). As to the kind of experiment: Example A7: Mycosphaerella arachidis (Cercospora arachidicola) / liquid culture (early leaf spot). The settings on record: read-out: control of Mycosphaerella arachidis. The class given is cell-based.
The test system of a further data set is Phakopsora pachyrhizi. As to the kind of experiment: Example A8: Phakopsora pachyrhizi / soybean / preventative (soybean rust). It is filed as in vivo. The settings on record: foliar, soybean leaf disks preventative, inoculated one day after application, compared to untreated control.
The test system of data set [5] is Puccinia recondita f. sp. tritici. It is filed as in vivo. Particulars: foliar, 24 h, wheat leaf disc curative, applied 1 day after inoculation, compared to untreated control.
The test system is the same in data set [6]. It is filed as in vivo. Particulars: foliar, wheat leaf disc preventative, inoculated 1 day after application, compared to untreated control.
The subject of data set [7] is Magnaporthe grisea (Pyricularia oryzae). As to the kind of experiment: whole plant or invertebrate. The settings on record: foliar, read-out: control of Magnaporthe grisea. The class given is in vivo.
The next data set deals with Pyrenophora teres. The experiment in a line: Example A12: Pyrenophora teres / barley / leaf disc preventative (net blotch). It is filed as in vivo. Particulars: foliar, inoculated 2 days after application, compared to untreated control.
Data set [8] concerns Mycosphaerella graminicola (Septoria tritici). The experiment in a line: Example A14: Mycosphaerella graminicola (Septoria tritici) / liquid culture (Septoria blotch). The settings on record: Zymoseptoria tritici; read-out: control of Mycosphaerella graminicola. It is filed as cell-based.

The values that follow come from patent US20230270114A1, “FUNGICIDAL COMPOSITIONS” (SYNGENTA CROP PROTECTION AG, priority 2020, published 2023).

Structures are written as SMILES. Like-named read-outs stand apart in the source and are kept apart here.

As to `CCOC(=O)C(=O)N(c1cc(F)nc(F)c1)c1nc(C(=O)NC2CCC2(C)C)c(C)s1` (stereo not drawn) [X.34, ethyl 2-[(2,6-difluoro-4-pyridyl)-[4-[(2,2-dimethylcyclobutyl)carbamoyl]-5-methyl-thiazol-2-yl]amino]-2-oxo-acetate], the pest or weed control at 200 ppm (in the data set on Alternaria solani; in the data set on Phakopsora pachyrhizi; in data set [5]; in data set [6]; in [7]; in the data set with Pyrenophora teres) was ≥ 80% each time. Also, the inhibition of growth at 20 ppm in [1] is ≥ 70%; in data set [2], ≥ 80%; in [3], ≥ 80%; in data set [4], ≥ 80%; in data set [8], ≥ 80%.
`Cc1sc(N(C(=O)C(C)C)c2cc(F)nc(F)c2)nc1C(=O)NC1CCC1(C)C` (stereo not drawn) [X.38, 2-[(2,6-difluoro-4-pyridyl)-(2-methylpropanoyl)amino]-N-(2,2-dimethylcyclobutyl)-5-methyl-thiazole-4-carboxamide]: the melting point (commonly the temperature, or range, at which the solid turns liquid) was in the range of 123 to 126 °C. In addition, the pest or weed control at 200 ppm with Alternaria solani was ≥ 80%. In data set [1], the inhibition of growth at 20 ppm is ≥ 70%. For the same molecule, the inhibition of growth at 20 ppm in [2] was ≥ 80%. In addition, the inhibition of growth at 20 ppm in data set [3] was ≥ 80%. The pest or weed control at 200 ppm in the data set on Phakopsora pachyrhizi was ≥ 80%. In addition, the pest or weed control at 200 ppm in data set [5] was ≥ 80%. For the same molecule, the pest or weed control at 200 ppm in data set [6] was ≥ 80%. Further, the pest or weed control at 200 ppm in [7] is ≥ 80%. Further, the pest or weed control at 200 ppm in the data set on Pyrenophora teres is ≥ 80%.
